# Measured values taken from a melting point compilation (Tetko et al.).
row,melting point,Structure (SMILES)
1,32 °C,COc1ccc(N=C=O)c(OC)c1
2,151 °C,O=C(C1=NN(c2ccccc2)C2C(=O)N(c3ccc([N+](=O)[O-])cc3)C(=O)C12)c1ccc(Br)cc1 (centres undefined)
3,216 °C,Cc1cc(C)c2c(=O)[nH]n(C)c2n1
4,75 to 80 °C,Brc1ccc(Cn2ccnc2)cc1
5,180 °C,CCNC(=O)C=C(C)C=CC=C(C)C=Cc1c(C)cc(OC)c(C)c1C
6,130 to 131 °C,[O-][N+](=Nc1ccccc1)c1ccc(N=Nc2ccccc2)cc1
7,187 °C,Clc1ccc(-c2csc(N3N=C(c4cnccn4)CC3c3ccc4c(c3)OCO4)n2)cc1 (centres undefined)
8,179 °C,COc1cc(C(N)=O)cc(OC)c1OC
9,102 to 105 °C,CCOC(=O)CC1NCCNC1=O (centres undefined)
10,127 °C,COc1cc2c(cc1O)C(Cc1ccc(OC)c(OC)c1)N(C)CC2 (centres undefined)
11,87 °C,CC=Cc1ccc(OCC)c(O)c1
12,235 to 238 °C,O=[N+]([O-])c1ccccc1-c1nc(-c2ccccc2)c(-c2ccccc2)[nH]1
13,180 °C,CC1CC=C/C1=N\Nc1ccc([N+](=O)[O-])cc1[N+](=O)[O-] (centres undefined)
14,156 °C,Clc1ccc(/C=C(\Oc2ccc(Cl)cc2Cl)c2nc3ccccc3s2)cc1
15,80 °C,COc1ccc2c(=O)n3c(cc2c1)CCCC3
16,156 to 157 °C,Cc1cc(C)c(CC(=O)c2oc3ccccc3c2NC(=O)Cc2ccccc2)c(C)c1
17,-60 °C,OCC1CC1
18,92 to 94 °C,O=C(c1ccccc1)c1cccc([N+](=O)[O-])c1
19,39 °C,COC(=O)c1ccc(C(=O)OC)c(C(=O)OC)c1
20,74 °C,CCC(C)(O)C(=O)O (centres undefined)
21,81 to 83 °C,CC(C)(C)N=O
22,25 to 27 °C,CC(=O)c1c(O)cccc1OCCC(C)C
23,210 to 214 °C,NNC(=O)c1ccc([N+](=O)[O-])cc1

row,melting point,Structure (SMILES)
1,152 °C,COc1c(OC)c(OC(C)=O)c2c(C#N)cccc2c1OC(C)=O
2,134 °C,CCCCCCCCCCCCCCCCCC(=O)Nc1ccc(O)cc1
3,156 °C,CC(C)(C)c1ccc(C2CCC3(CC2)Cc2ccc(O)cc2C3)cc1 (centres undefined)
4,41 °C,CC(=O)Oc1ccc(OC(C)=O)c(C)c1
5,179 to 180 °C,O=Cc1cc(C=O)c(O)c(C=O)c1
6,41.5 °C,CC(C)(CCl)C(=O)O
7,102 to 109 °C,O=C(O)c1ncccc1N1CCCCC1
8,276 °C,O=[N+]([O-])c1ccc(NN=C(Cc2ccccc2)C(Cc2ccccc2)=NNc2ccc([N+](=O)[O-])cc2)cc1
9,124 °C,Cc1ccn2c(=O)c3ccccc3cc2c1
10,109 °C,CCOC(=O)C1C(c2ccc(OC)cc2)C(C(=O)OCC)C(O)(C(F)(F)F)NC1(O)C(F)(F)F (centres undefined)
11,31 °C,CCCCCCCCC(=O)CCCCCC
12,179 to 180 °C,CCc1c(C)nc(NC(=O)NS(=O)(=O)c2cccs2)nc1O
13,173 to 175 °C,COc1ccc(C2CC(c3ccc4ccccc4c3)=NN2C(N)=O)cc1 (centres undefined)
14,61 °C,CC1=C(C#N)C(c2cccc([N+](=O)[O-])c2)C(C(=O)OC(C)(C)C)=C(C)N1 (centres undefined)
15,41 °C,COc1ccccc1N=Nc1ccccc1
16,11 °C,CC(Br)C(C)(C)Br (centres undefined)
17,183 °C,CCC(C(=O)O)c1ccc(N2Cc3ccccc3C2=O)cc1 (centres undefined)
18,158 to 161 °C,NCCCCC(=O)O
19,221 to 222 °C,CC1=C(C=NNC(N)=O)C(=O)C(C(C)C)C=C1 (centres undefined)
20,159 °C,CCC(=O)Nc1nc(C)c(Cl)s1
21,182 °C,O=[N+]([O-])c1ccccc1C(Br)C(Br)c1ccccn1 (centres undefined)
22,53 to 57 °C,O=S(=O)(Cl)c1cc(Cl)cc(Cl)c1
23,228 °C,CN(C)C(=O)C(CCN1CCC(O)(c2ccc(Cl)cc2)CC1)(c1ccccc1)c1ccccc1

row,melting point,Structure (SMILES)
1,161 to 163 °C,CC(C)CCCC(C)C1CCC2(C)C1(C)CCC13OC21CCC1C(C)C(O)CCC13C (centres undefined)
2,147 to 148 °C,O=C(O)CCC12CC3CC(CC(C3)C1)C2
3,140 °C,OCC12CC3CC(CC(C3)C1)C2
4,-24 °C,CC(C)(C)Oc1ccccc1
5,91 °C,CC1=C(C)CC(Cl)(Cl)C(=O)C(Cl)(Cl)C1
6,207 °C,COc1cc(C(=O)O)ccc1F
7,192 to 194 °C,CSc1nc(=O)n(C2CCCCC2)c2c1CCC2
8,250 °C,CC(=O)Nc1ccc(-c2csc(N)n2)cc1
9,169 °C,CC(C)[C@@H]1C(=O)N(c2ccccc2)[C@@H]1c1ccccc1
10,221 °C,CC1=NCCNc2c1c(=O)n(-c1ccccc1)c1ccccc21
11,94 to 96 °C,Cc1cc(Cl)c(C)cc1N
12,50 to 52 °C,FC(F)(F)c1ccc(N2CCOCC2)c(Br)c1
13,72 to 74 °C,Nc1cccc(CN2CCCC2)c1
14,181 °C,O=C(O)c1ncoc1-c1ccccc1
15,198 °C,CN1C(C(=O)Nc2ccccn2)=C(O)c2ccccc2S1(=O)=O
16,252 °C,O=C(Nc1cc([N+](=O)[O-])ccc1C(=O)O)c1ccccc1
17,142 °C,Cc1n[nH]cc1-c1ccccc1
18,254 °C,O=C1c2ccccc2C(=O)N1c1n[nH]c2ncccc12
19,30 °C,Clc1ccc(Oc2ccc(Cl)cc2)cc1
20,219 °C,COc1cccc2cc(C(=O)O)oc12
21,82 °C,CCc1ssc(=O)c1-c1ccccc1
22,280 to 282 °C,O=C(Nc1ccc([N+](=O)[O-])cc1)C(C(F)(F)F)(C(F)(F)F)C(F)(F)F
23,276 °C,CC(=O)NC1=NC(=O)C(=Cc2coc3ccc(Cl)cc3c2=O)N1C

row,melting point,Structure (SMILES)
1,243 to 245 °C,O=C(O)C1c2ccccc2C(=O)N(Cc2ccc(F)cc2)C1c1ccncc1 (centres undefined)
2,206 °C,Cc1ccc(-c2nnc(-c3ccccc3)c3c(C)onc23)cc1
3,-75 °C,C=C(C)C(=O)OCCCC
4,236 °C,COc1ccc(C=Cc2cc(O)cc(OC3OC(CO)C(O)C(O)C3O)c2)cc1O (centres undefined)
5,134 °C,Cc1c(N(C)C)c(=O)n(-c2ccccc2)n1C
6,79 to 82 °C,CC(C)CCCC(C)C1CCC2C3CCC4=CC(=O)CCC4(C)C3CCC12C (centres undefined)
7,215 to 220 °C,Cn1nc(N)c2c(=O)cc[nH]c21
8,111 °C,Cc1ccc(NC(=O)C(F)(F)C(F)(F)C(F)(F)C(F)(F)C(F)(F)C(F)(F)C(F)(F)C(F)(F)F)cc1C
9,68 to 72 °C,C1COCCN2CCOCCOCCN(CCO1)CCOCCOCC2
10,110 to 113 °C,CC(=O)O[C@@H]1[C@@H](OC(C)=O)[C@H](C)O[C@@H](OCc2ccccc2)[C@@H]1OC(C)=O
11,66 °C,FC(F)(F)C(F)(F)C(F)(F)C(F)(F)C(F)(F)C(F)(F)C(F)(F)C(F)(F)C(F)(F)C(F)(F)I
12,141 °C,Cc1cc(N)c([N+](=O)[O-])cc1C
13,62 °C,CCOC(C(=O)c1ccccc1)c1ccccc1 (centres undefined)
14,58 °C,O=[N+]([O-])c1ccc(Oc2ccccc2)cc1
15,129 to 131 °C,COC(=O)C(C#N)=C(NC(=O)c1ccccc1)SC
16,160 °C,O=C1/C(=C/c2ccc([N+](=O)[O-])cc2)SC(=S)N1CN1CCCCC1
17,142 to 144 °C,O=C(O)CCC(=O)CCC(=O)O
18,-1 °C,CC(Cl)C(C)(C)C (centres undefined)
19,-59 °C,C[Si](C)(C)O[Si](C)(C)O[Si](C)(C)O[Si](C)(C)O[Si](C)(C)O[Si](C)(C)C
20,230 to 232 °C,Cc1cc(C)c(C2(C)CC(C(=NNC(N)=O)c3cc4cc(Br)ccc4o3)C2)c(C)c1 (centres undefined)
21,53 to 55 °C,C1COCCOCCOCCN1
22,188 °C,O=C(O)c1ccccc1-c1cccnc1
23,90 °C,CC(C)=C1C2CCC1c1ccccc12

row,melting point,Structure (SMILES)
1,184 °C,NC(=S)NN=C1C2CCCC1C1(O)CCCCC1C2 (centres undefined)
2,149 to 152 °C,C#CCON1C(=O)c2ccccc2C1=O
3,142 °C,O=C(NCO)c1cccnc1
4,179 to 180 °C,N#Cc1c(NC(=O)CCl)sc2c1CCCC2
5,49 °C,Clc1cnc(Cl)c(Cl)c1
6,259 to 261 °C,O=C(O)c1cccc(-c2cnco2)c1
7,222 °C,Cc1ccc(Cn2ncc3c(N)ncnc32)cc1
8,40 °C,COc1cc(F)c(F)cc1OC
9,113 to 117 °C,NC(=S)Nc1cccc(F)c1
10,-8 °C,FC(F)(F)c1ccc(I)cc1
11,52 °C,COc1ccc(N=C=S)c(OC)c1
12,44 °C,c1ccc(-c2ncoc2-c2ccccc2)cc1
13,230 to 234 °C,Cc1cc2cc3c(C)cc(=O)oc3c(C)c2o1
14,100 °C,CC(=O)C(=O)Nc1ccccc1
15,243 to 245 °C,NC(Cc1cc(F)cc(F)c1)C(=O)O (racemic)
16,78 °C,C=CCN=C(S)NCCO
17,175 to 177 °C,Cc1ccccc1C=CC(=O)O
18,73 °C,CCOC(=O)C=Cc1ccc(N)cc1
19,269 to 270 °C,O=C(O)/C=C/c1cccc2c(Br)cccc12

row,Structure (SMILES),melting point
1,c1ccc(-c2c[nH]cn2)cc1,144 °C
2,NP(=O)(Oc1ccccc1)Oc1ccccc1,149 °C
3,Fc1ccc(-c2ccc(F)cc2)cc1,94.5 °C
4,CN1C2CCC1CC(OC(=O)c1ccccc1)C2 (centres undefined),49 °C
5,CCCN(CCOc1c(Cl)cc(Cl)cc1Cl)C(=O)n1ccnc1,48.3 °C
6,CCCCNC(=O)OC#CCI,66 °C
7,CCCCCC(C)Br (centres undefined),47 °C
8,CCON=C(CC)C1=C(O)CC(c2c(C)cc(C)cc2C)CC1=O (centres undefined),110 °C
9,C1CCC(C2CCCCC2)CC1,3 to 4 °C
10,CCOC(=O)C1=C(NC(=O)c2ccco2)Oc2c(c(=O)oc3ccccc23)C1c1ccc(Br)cc1 (centres undefined),140 °C
11,CC1(C)CCC(=Cc2ccc(Cl)cc2)C1(O)Cn1cncn1 (centres undefined),140 °C
12,O=C(Cl)c1ccccc1,-1 °C
13,Fc1ccccc1C1=NCC(=S)N(CC(F)(F)F)c2ccc(Cl)cc21,138 °C
